Values of other authors, collected in patent US20250213575A1, “8-HETEROCYCLIC-3-(PHENYLSULFONYL)-[1,2,3]TRIAZOLO[1,5A]QUINAZOLIN-5(4H)-ONE DERIVATIVES AS ANTI-BACTERIALS” (priority 2022, published 2025).

System: AgrA-regulated toxin gene transcription such as hla, psma and pvl
Settings: across all four agr groups; cited from earlier work

In the case of `CC(C)c1ccc(S(=O)(=O)c2nnn3c2nc(O)c2ccccc23)cc1` [Savirin], the “modulation of AgrA-regulated toxin gene transcription” value is listed as “potent modulator”.
